Assay results: patent publication US20240309022A1, “Metal-Organic Frameworks with Pyrazole-Based Building Blocks” (BASF SE, priority 2021, published 2024)

Experiments:
[1] = system: N2O emission; test: N2O inhibition in vegetation hall over 10 days using ammonium sulfate as fertilizer; settings: 10 days cumulative
From the text: N2O inhibition in vegetation hall over 10 days (cumulative values) using AS (ammonium sulfate) as fertilizer: […]

[2] = system: nitrification in soil (microbial biomass); test: Soil incubation test for inhibition of nitrification (Example 4); format: cell-based; settings: n=4
Protocol: 100 g soil is filled into 500 ml plastic bottles (e.g. soil sampled from the field) and is moistened to 50% water holding capacity. The soil is incubated at 20° C. for two weeks to activate the microbial biomass. 1 ml test solution, containing the components of the mixture in the appropriate concentration (usually from 0.1 to 3% of nitrogen N), or DMSO and 10 mg nitrogen in the form of ammoniumsulfate-N is added to the soil and everything mixed well. Bottles are capped but loosely to allow air exchange. The bottles are then incubated at 20° C. for 0, 14 and 28 days.
For analysis, 300 ml of a 1% K2SO4-solution is added to the bottle containing the soil and shaken for 2 hours in a horizontal shaker at 150 rpm. Then the whole solution is filtered through a filter (Macherey-Nagel Filter MN 807%). Ammonium and nitrate content is then analyzed in the filtrate in an autoanalyzer at 550 nm (Merck, AA11).
The inhibition (NI@a specified concentration) is calculated as follows:
4 tests regarding the inhibition of nitrification were performed in each case (n=4).
The tested amounts were 0.3 and 1% by weight of component (ii) of the MOF relative to NH4—N.

[3] = system: nitrification in soil Limburgerhof (microbial community); test: Soil incubation with inhibitor mixed into ammonium sulfate nitrate melt (Example 5); format: cell-based; settings: after 14 days, added to ASS melt at 125° C.
Protocol: The MOF of Example 3 was tested as follows in terms of the inhibition of nitrification: The nitrification inhibition capacity was tested after incubation of soil. In the experiment 50 g soil (soil Limburgerhof with pH (CaCl2)) 6, 73% sand, 23% silt, 4% clay, which is classified according to FAO as sandy loam) was filled into 250 ml plastic bottles and was moistened to 50% water holding capacity. The soil was incubated at 20° C. for about one week prior to the experiments to activate the microbial community. Ammonium sulfate nitrate (ASS) was heated to 125° C. in presence of 4% water. After the ASS had melted, Zinc-5-Ethoxy-3-Methyl-Pyrazolate or the underlying pyrazole compound was added and was mixed in for 1 minute. Afterwards, the melted ASS was poured onto a metal plate and cooled down to room temperature. Depending on treatment, 26.3 mg the treated ASS were milled and added to the soil and everything was mixed well. […] The fertilizer amount used for the experiment was calculated to contain 5 mg nitrogen in the form of ammonium sulfate-N(NH4—N)). […] Ammonium and nitrate content is then analyzed in the filtrate using an autoanalyzer. Ammonium was quantified via an indophenol blue dye at 660 nm, and nitrate via an azo dye at 540 nm. The nitrification inhibition is expressed as % of NH4—N recovery from fertilized NH4—N-(100%) after subtraction of unfertilized control soil.

[4] = Evaporation of active ingredient in thermogravimetric analyzer; format: physicochemical; settings: during 1 hour at 30° C.; continuous flow of N2 gas
Protocol: The evaporation of 5-ethoxy-3-methyl-1H-pyrazole and the corresponding Zn MOF of 5-ethoxy-3-methyl-1H-pyrazole, i.e. Zinc-5-Ethoxy-3-Methyl-Pyrazolate, has been measured in a thermogravimetric analyzer instrument by the following procedure. A few milligrams of the test substance were positioned on the probe of the thermogravimetric analyzer, in a continuous flow of N2 gas. After equilibrating the system to 30° C., the weight of the sample was monitored over a time period of 65 minutes at a temperature of 30° C.

[5] = 0.3 wt.-% of pyrazolate relative to NH4—N, after 14 days
[6] = 0.3 wt.-% of pyrazolate relative to NH4—N, after 28 days
[7] = 1.0 wt.-% of pyrazolate relative to NH4—N, after 14 days
[8] = 1.0 wt.-% of pyrazolate relative to NH4—N, after 28 days

Structure (SMILES) | % Emission (N2O) ([1]; 0.3 wt.-% relative to NH4—N) | % Inhibition (N2O) ([1]; 0.3 wt.-% relative to NH4—N) | Emission cumulative minus background (N2O) ([1]; 0.3 wt.-% relative to NH4—N) | % Emission (N2O) ([1]; 1.0 wt.-% relative to NH4—N) | % Inhibition (N2O) ([1]; 1.0 wt.-% relative to NH4—N) | Emission cumulative minus background (N2O) ([1]; 1.0 wt.-% relative to NH4—N) | Reduction of NO3− production [2, 5] | Residual amounts of NH4 [2, 5] | Reduction of NO3− production [2, 6] | Residual amounts of NH4 [2, 6] | Reduction of NO3− production [2, 7] | Residual amounts of NH4 [2, 7] | Reduction of NO3− production [2, 8] | Residual amounts of NH4 [2, 8] | Residual amounts of NH4 (% of NH4—N recovery from fertilized NH4—N) ([3]; 0.3 wt.-% relative to NH4—N) | Residual amounts of NH4 (% of NH4—N recovery from fertilized NH4—N) ([3]; 0.8 wt.-% relative to NH4—N) | % loss (evaporation of active ingredient) [4]
COc1cc(C)n[nH]1 [5-Methoxy-3-Methyl-1H-Pyrazole] | 10.4% | 89.6% | 393 | 5.0% | 95.0% | 191 | 75 | 70 | 40 | 34 | 88 | 90 | 74 | 68 |  |  | 
CCOc1cc(C)n[nH]1 [5-ethoxy-3-methyl-1H-pyrazole] |  |  |  |  |  |  |  |  |  |  |  |  |  |  | 45.4% | 57.0% | 5.6%
